What is called GI50 is the concentration giving 50% growth inhibition. A low value points to greater sensitivity of the cells.

What all share (assay type): cell-based
Assay [1] relates to P388 cells (mouse leukemia cells). The assay is described as follows: in vitro antitumor activity test, P388 cells, XTT colorimetry. The note with it: cultured 72 hours. How it is done:
P388 cells (mouse leukemia cells) passaged in the abdominal cavity of DBA/2 mice were extracted with ascitic fluid, and cultured in a RPMI 1640 medium (added with 10% fetal bovine serum, 25 mM HEPES, 0.1 mg/ml kanamycin and 5 μM 2-hydroxyethyldisulfide) at 37° C. in 5% carbon dioxide gas. After culturing for 16 hours, floating P388 cells were made into a single cell suspension of 4×10^4 cells per 1 ml using the same RPMI 1640 medium as given above. The test substances were dissolved in DMSO, then diluted in a RPMI 1640 medium (added with 10% fetal bovine serum, 25 mM HEPES and 0.1 mg/ml kanamycin) and prepared so that the concentrations were 2.0×10^−9 to 2.0×10^−4 M.
0.1 ml of the cell suspension was placed into each well of 96-well microplates, then 0.1 ml of the sample solutions were added, and cultured for 72 hours at 37° C. in 5% carbon dioxide gas.
(§1) Afterwards, the level of growth inhibition at various sample concentrations was obtained using XTT colorimetry, and concentrations at which growth was inhibited by 50% (GI50 values [μM]) were calculated.
Background: Formazan colour is commonly taken as a measure of viable cells.

Assay [2] concerns PC-3 cells (human prostate cancer cells). The assay is described as follows: in vitro antitumor activity test, PC-3 cells, XTT colorimetry. The note with it: PC-3 human prostate cancer cells, cultured 72 hours. How it is done: (§2) WiDr cells (human colon cancer cells) subcultured in a culture medium composed of a MEM medium added with 10% fetal bovine serum, 25 mM HEPES and 0.1 mg/ml kanamycin under the conditions of 37° C. and 5% carbon dioxide gas were made into single floating cells by treating with trypsin/EDTA, and a single cell suspension of 3×10^4 cells per 1 ml was prepared using the MEM medium (added with 10% fetal bovine serum, 25 mM HEPES and 0.1 mg/ml kanamycin). After dissolving the test compounds in DMSO, they were diluted in a RPMI 1640 medium (added with 10% fetal bovine serum, 25 mM HEPES and 0.1 mg/ml kanamycin) and prepared so that the concentrations were 2.0×10^−9 to 2.0×10^−4 M.
(§3) 0.1 ml of the cell suspension was placed into each well of 96-well microplates, cultured for 24 hours to allow the cells to adhere to the microplates, then 0.1 ml of the sample solutions were added, and cultured for 72 hours at 37° C. in 5% carbon dioxide gas.
as §1
(§4) In addition, cells other than WiDr cells that were used, and the condition for preparing each single cell suspension were as follows.
PC-3 cells (human prostate cancer cells): 2×10^4 cells/ml

Assay [3] deals with B16F10 cells (mouse melanoma [malignant melanoma] cells). Description: in vitro antitumor activity test, B16F10 cells, XTT colorimetry. The note with it: B16-F10, cultured 72 hours. The method, then:
as §2, §3, §1, §4
B16F10 cells (mouse melanoma [malignant melanoma] cells): 1×10^4 cells/ml

Assay [4] deals with WiDr cells (human colon cancer cells). Description: in vitro antitumor activity test, WiDr cells, XTT colorimetry. The note with it: cultured 72 hours. How it is done:
as §2, §3, §1

For assay [5], the system named is A549 cells (human lung cancer cells). The assay is described as follows: in vitro antitumor activity test, A549 cells, XTT colorimetry. The note with it: cultured 72 hours. How it is done: as §2, §3, §1, §4
A549 cells (human lung cancer cells): 2×10^4 cells/ml

For `CCNc1nc(SCc2ccc(OC)c(C#N)c2)nc2c1ncn2C` [Compound 89, 2-(3-cyano-4-methoxybenzylsulfanyl)-6-ethylamino-9-methyl-9H-purine], the GI50 in assay [1] was found to be 0.11 µM; in assay [2], 0.21 µM; in assay [3], 0.13 µM; in assay [4], 0.12 µM; in assay [5], 0.15 µM.

For the compound `CCNc1nc(SCc2ccc(OC)c(F)c2)nc2c1ncn2C` [Compound 91, 6-ethylamino-2-(3-fluoro-4-methoxybenzylsulfanyl)-9-methyl-9H-purine], the GI50 in assay [1] turned out to be 0.09 µM; in assay [2], 0.34 µM; in assay [3] it was 0.14 µM; in assay [4], 0.09 µM; in assay [5], 0.14 µM.

For `CCc1nc2c(N3CCOCC3)nc(SCc3ccc(OC)c(F)c3)nc2n1CC` [Compound 123, 8,9-diethyl-2-(3-fluoro-4-methoxybenzylsulfanyl)-6-morpholino-9H-purine], the GI50 in assay [1] is 0.13 µM; in assay [2] it was 0.24 µM; in assay [3], 0.37 µM; in assay [4], 0.2 µM; in assay [5] it was 0.42 µM.

For `C/C=C/c1nc(SCc2ccc(OC)c([N+](=O)[O-])c2)nc2c1ncn2C` [Compound 171, 2-(4-methoxy-3-nitrobenzylsulfanyl)-9-methyl-6-(1-trans-propenyl)-9H-purine], the GI50 is 0.22 µM in assay [1]; 0.47 µM in assay [2]; 0.56 µM in assay [3]; 0.37 µM in assay [4]; 0.27 µM in assay [5].

For the compound `CCN(C)c1nc(SCc2ccc(OC)c(C#N)c2)nc2c1ncn2C` [Compound 85, 2-(3-cyano-4-methoxybenzylsulfanyl)-6-(N-ethyl-N-methylamino)-9-methyl-9H-purine], the GI50 came out at 0.07 µM in assay [1]; 0.12 µM in assay [2]; 0.12 µM in assay [3]; 0.08 µM in assay [4]; 0.14 µM in assay [5].

On to `CCc1nc2c(N3CCOCC3)nc(SCc3ccc(OC)cc3)nc2n1C` [Compound 1, 8-ethyl-2-(4-methoxybenzylsulfanyl)-9-methyl-6-morpholino-9H-purine], for which the GI50 was determined as 0.29 µM in assay [1]; 0.28 µM in assay [2]; 0.41 µM in assay [3]; 0.35 µM in assay [4]; 0.56 µM in assay [5].

Consider `CCOc1ccc(CSc2nc(N3CCOCC3)c3nc(CC)n(CC)c3n2)cc1N` [Compound 106, 2-(3-amino-4-ethoxybenzylsulfanyl)-8,9-diethyl-6-morpholino-9H-purine], for which the 50% growth inhibitory concentration (GI50) was determined as 0.2 µM in assay [1]; 0.95 µM in assay [2]; 0.3 µM in assay [3]; 0.29 µM in assay [4]; 0.14 µM in assay [5].

`CCc1nc2c(N3C=COCC3)nc(SCc3ccc(OC)cc3)nc2n1CC` [Compound 158, 8,9-diethyl-6-(2,3-dihydro-[1,4]oxadin-4-yl)-2-(4-methoxybenzylsulfanyl)-9H-purine]: the GI50 in assay [1] is 0.24 µM; in assay [2] it was 0.31 µM; in assay [3], 0.42 µM; in assay [4], 0.35 µM; in assay [5], 0.41 µM.

As for `CCc1nc2c(N3CCOCC3)nc(SCc3ccc(OC)c(F)c3)nc2n1C` [Compound 14, 8-ethyl-2-(3-fluoro-4-methoxybenzylsulfanyl)-9-methyl-6-morpholino-9H-purine], the GI50 is 0.2 µM in assay [1]; 0.16 µM in assay [2]; 0.34 µM in assay [3]; 0.26 µM in assay [4]; 0.12 µM in assay [5].

Turning to `COc1ccc(CSc2nc(N(C)OC)c3ncn(C)c3n2)cc1` [Compound 105, 6-(N-methoxy-N-methylamino)-2-(4-methoxybenzylsulfanyl)-9-methyl-9H-purine], the 50% growth inhibitory concentration (GI50) in assay [1] worked out at 0.24 µM; in assay [2], 0.56 µM; in assay [3] it was 0.41 µM; in assay [4], 0.26 µM; in assay [5] it was 0.24 µM.

`CCCn1c(CC)nc2c(N3CCOCC3)nc(SCc3ccc(OC)cc3)nc21` [Compound 6, 8-ethyl-2-(4-methoxybenzylsulfanyl)-6-morpholino-9-propyl-9H-purine]: the GI50 worked out at 0.72 µM in assay [1]; 0.6 µM in assay [2]; 1.16 µM in assay [3]; 0.94 µM in assay [4]; 0.87 µM in assay [5].

For `CCn1cnc2c(N3C=COCC3)nc(SCc3ccc(OC)c(F)c3)nc21` [Compound 154, 6-(2,3-dihydro-[1,4]oxadin-4-yl)-9-ethyl-2-(3-fluoro-4-methoxybenzylsulfanyl)-9H-purine], the GI50 came out at 0.09 µM in assay [1]; 0.22 µM in assay [2]; 0.37 µM in assay [3]; 0.17 µM in assay [4]; 0.1 µM in assay [5].

Consider `CNc1nc(SCc2ccc(OC)c(N)c2)nc2c1ncn2C` [Compound 45, 2-(3-amino-4-methoxybenzylsulfanyl)-9-methyl-6-methylamino-9H-purine], for which the GI50 was determined as 0.09 µM in assay [1]; 0.15 µM in assay [2]; 0.28 µM in assay [3]; 0.83 µM in assay [4]; 0.12 µM in assay [5].

Regarding `COc1ccc(CSc2nc(N3CCOCC3)c3ncn(C)c3n2)cc1` [Compound 9, 2-(4-methoxybenzylsulfanyl)-9-methyl-6-morpholino-9H-purine], the GI50 came out at 0.3 µM in assay [1]; 0.38 µM in assay [2]; 1.17 µM in assay [3]; 0.4 µM in assay [4]; 0.57 µM in assay [5].

`CCc1nc2c(N(C)C)nc(SCc3ccc(OC)c(F)c3)nc2n1C` [Compound 71, 6-dimethylamino-8-ethyl-2-(3-fluoro-4-methoxybenzylsulfanyl)-9-methyl-9H-purine]: the 50% growth inhibitory concentration (GI50) was 0.08 µM in assay [1]; 0.05 µM in assay [2]; 0.11 µM in assay [3]; 0.08 µM in assay [4]; 0.1 µM in assay [5].

Take `CCc1nc2c(N3CCOCC3)nc(SCc3ccc(OC)c(N)c3)nc2n1CC` [Compound 97, 2-(3-amino-4-methoxybenzylsulfanyl)-8,9-diethyl-6-morpholino-9H-purine]: the 50% growth inhibitory concentration (GI50) in assay [1] is 0.09 µM; in assay [2], 0.12 µM; in assay [3] it was 0.29 µM; in assay [4], 0.3 µM; in assay [5], 0.14 µM.

As to `CCOc1ccc(CSc2nc(N3CCOCC3)c3nc(CC)n(C)c3n2)cc1N` [Compound 103, 2-(3-amino-4-ethoxybenzylsulfanyl)-8-ethyl-9-methyl-6-morpholino-9H-purine], the concentration for 50% growth inhibition (GI50) in assay [1] is 0.17 µM; in assay [2], 0.13 µM; in assay [3], 0.32 µM; in assay [4], 0.28 µM; in assay [5], 0.23 µM.

For the compound `COc1ccc(CSc2nc(N3CC=CC3)c3ncn(C)c3n2)cc1` [Compound 130, 2-(4-methoxybenzylsulfanyl)-9-methyl-6-(3-pyrrolin-1-yl)-9H-purine], the 50% growth inhibitory concentration (GI50) was 0.25 µM in assay [1]; 0.54 µM in assay [2]; 0.63 µM in assay [3]; 0.28 µM in assay [4]; 0.4 µM in assay [5].

Consider `CNc1nc(SCc2ccc(OC)c(F)c2)nc2c1ncn2C` [Compound 73, 2-(3-fluoro-4-methoxybenzylsulfanyl)-6-methylamino-9-methyl-9H-purine], for which the GI50 in assay [1], in assay [2], in assay [3], in assay [4] and in assay [5] was below 0.04 µM in each case.

Regarding `CCn1cnc2c(N3C=COCC3)nc(SCc3ccc(OC)c(N)c3)nc21` [Compound 151, 2-(3-amino-4-methoxybenzylsulfanyl)-6-(2,3-dihydro-[1,4]oxadin-4-yl)-9-ethyl-9H-purine], the GI50 in assay [1] worked out at 0.57 µM; in assay [2] it was 1.44 µM; in assay [3], 1.47 µM; in assay [4], 3.4 µM; in assay [5], 0.7 µM.

`COc1ccc(CSc2nc(N3C=COCC3)c3ncn(C)c3n2)cc1C#N` [Compound 153, 2-(3-cyano-4-methoxybenzylsulfanyl)-6-(2,3-dihydro-[1,4]oxadin-4-yl)-9-methyl-9H-purine]: the concentration for 50% growth inhibition (GI50) in assay [1], in assay [2], in assay [3], in assay [4] and in assay [5] was below 0.04 µM each time.

Values taken from patent US9132130B2, “Purine derivative and antitumor agent using same” (ZENYAKU KOGYO KABUSHIKI KAISHA, priority 2009, dated 2015).
